Patent US9510598B2, “Nitrogen-containing heterocyclic compounds for plant disease control” (BAYER CROPSCIENCE AG, priority 2012, dated 2016)
Where “and” joins values, the source holds several entries; their conditions need not be identical. Identical values can stand only once. Like-named read-outs stand apart in the source and are kept apart here.

How the values were obtained:
[1] = format: physicochemical; details: for chromatographic logP: pH 2.7
Alternaria brassicae = experiment: In vivo preventive test on Alternaria brassicae (leaf spot on radish); details: 500 ppm; radish plants sprayed 24 hours before contamination; grading 5 days after contamination vs control plants
In short: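 Radish plants ('Pernod Clair', grown at 17 °C) were spray-treated at the 2-leaf stage; controls received solvent mix only. After 24 h, leaves were sprayed with 50 000 spores/ml from 15-day-old cultures, and % efficacy was graded 5 days post-inoculation against controls.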

Pyrenophora teres = experiment: In vivo preventive test on Pyrenophora teres (net blotch on barley); details: 500 ppm; barley plants sprayed 24 hours before contamination; grading 12 days after contamination vs control plants
Protocol: Barley plants (“Plaisant” variety), sown in starter cups on a 50/50 peat soil-pozzolana substrate and grown at 22° C. (12 h)/20° C. (12 h), are treated at the 1-leaf stage (10 cm height) by spraying with the active ingredient prepared as described above. Plants, used as controls, are treated with the mixture of acetone/tween/DMSO/water not containing the active material. After 24 hours, the plants are contaminated by spraying the leaves with an aqueous suspension of Pyrenophora teres spores (12 000 spores per ml). The spores are collected from a 12-day-old culture. […] Grading (% of efficacy) is carried out 12 days after the contamination, in comparison with the control plants.

Puccinia recondita = experiment: In vivo preventive test on Puccinia recondita (brown rust on wheat); details: 500 ppm; wheat plants sprayed 24 hours before contamination; grading 10 days after contamination vs control plants
In short: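 Wheat (Scipion) grown at 22° C./20° C. (12 h each), sprayed with active ingredient at 1-leaf stage (10 cm); controls sprayed with acetone/tween/DMSO/water lacking active. Leaves inoculated 24 hours later with Puccinia recondita spore suspension (100 000 spores per ml).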

Septoria tritici = experiment: In vivo preventive test on Septoria tritici (leaf spot on wheat); details: 500 ppm; wheat plants sprayed 24 hours before contamination; grading 21 to 28 days after contamination vs control plants
In short: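 Scipion wheat at 1-leaf stage sprayed with compound, controls receiving acetone/tween/DMSO/water vehicle; 24 h later leaves inoculated with Septoria tritici spores (500 000 spores per ml). Efficacy (%) graded versus control plants 21 to 28 days after contamination.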

Uromyces appendiculatus = experiment: In vivo preventive test on Uromyces appendiculatus (bean rust); details: 500 ppm; bean plants sprayed 24 hours before contamination; grading 10 days after contamination vs control plants
Protocol: Bean plants (“Saxa” variety), sown in starter cups on a 50/50 peat soil-pozzolana substrate and grown at 24° C., are treated at the 2-leaf stage (9 cm height) by spraying with the active ingredient prepared as described above. Plants, used as controls, are treated with the mixture of acetone/tween/DMSO/water not containing the active material. After 24 hours, the plants are contaminated by spraying the leaves with an aqueous suspension of Uromyces appendiculatus spores (150 000 spores per ml).

Sphaerotheca fuliginea = experiment: In vivo preventive test on Sphaerotheca fuliginea (powdery mildew on cucurbits); details: 500 ppm; gherkin plants sprayed 24 hours before contamination; grading 12 days after contamination vs control plants
In short: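 Preventive spray of gherkin plants at Z11 cotyledon stage, grown at 24° C; inoculation 24 hours later with Sphaerotheca fuliginea spores (100 000 spores per ml). Efficacy graded 12 days post-inoculation as % versus solvent-treated control plants.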

physchem = details: pH 2.7
Protocol: Measurement of log P values was performed according EEC directive 79/831 Annex V.A8 by HPLC (High Performance Liquid Chromatography) on reversed phase columns with the following methods: ^[a]

Botrytis cinerea = experiment: In vivo preventive test on Botrytis cinerea (grey mould); details: 500 ppm; gherkin plants sprayed 24 hours before contamination; grading 4-5 days after contamination vs control plants
In short: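 Gherkin plants ("Vert petit de Paris") sprayed with compound at Z11 cotyledon stage, then inoculated 24 h later with B. cinerea spores (50 000/ml) in PDB/fructose/NH4NO3/KH2PO4 nutrient solution. Incubated at 17 °C, 80% RH; % efficacy versus solvent-treated controls graded 4–5 days after contamination.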

Peronospora parasitica = experiment: In vivo preventive test on Peronospora parasitica (crucifer downy mildew); details: 500 ppm; cabbage plants sprayed 24 hours before contamination; grading 5 days after contamination vs control plants
Protocol: Cabbage plants (Eminence variety) in starter cups, sown on a 50/50 peat soil-pozzolana substrate and grown at 18-20° C., are treated at the cotyledon stage by spraying with the aqueous suspension described above. Plants, used as controls, are treated with an aqueous solution not containing the active material. After 24 hours, the plants are contaminated by spraying them with an aqueous suspension of Peronospora parasitica spores (50.000 spores per ml). The spores are collected from infected plant. The contaminated cabbage plants are incubated for 5 days at 20° C., under a humid atmosphere. Grading is carried out 5 days after the contamination, in comparison with the control plants.

Phytophthora infestans = format: in vivo; details: 500 ppm; tomato plants sprayed 24 hours before contamination; grading 5 days after contamination vs control plants
[2] = method [a]: HPLC/LC-MS on reversed phase at pH 2.7, 0.1% formic acid in water / acetonitrile, gradient 10% to 95% acetonitrile
[3] = method [a]: HPLC/LC-MS on reversed phase at pH 2.7, 0.1% formic acid in water / acetonitrile, linear gradient 10% to 95% acetonitrile
[4] = HPLC on reversed phase columns, method [a]: pH 2.7, 0.1% formic acid in water / acetonitrile, linear gradient 10% to 95% acetonitrile

CCn1cc(CNC(=O)C2(C)CC(c3ccc4ncc(C(F)(F)F)cc4c3)=NO2)c(C)n1 (racemic) [compound 383]
log P [1, 2]: 2.45[a]
% of efficacy (protection) (Alternaria brassicae): 83%
% of efficacy (protection) (Pyrenophora teres): 86%
% of efficacy (protection) (Puccinia recondita): 94%
% of efficacy (protection) (Septoria tritici): 100%
% of efficacy (protection) (Uromyces appendiculatus): 99%

CC(C)NC(=O)C1(C)CC(c2ccc3ncc(C(F)(F)F)cc3c2)=NO1 (racemic) [compound 384]
log P [1, 2]: 2.90[a]
% of efficacy (protection) (Alternaria brassicae): 83%
% of efficacy (protection) (Pyrenophora teres): 86%
% of efficacy (protection) (Puccinia recondita): 89%
% of efficacy (protection) (Septoria tritici): 100%
% of efficacy (protection) (Uromyces appendiculatus): 79%

CC(C)NC(=O)C1(C)CC(c2ccc3ncc(N)cc3c2)=NO1 (racemic) [compound 435]
log P [1, 2]: 1.19[a]
% of efficacy (protection) (Pyrenophora teres): 83%
% of efficacy (protection) (Uromyces appendiculatus): 77%

COC1(C(=O)NC(C)C)CC(c2ccc3ncc(I)cc3c2)=NO1 (racemic) [compound 436]
log P [1, 2]: 2.75[a]
% of efficacy (protection) (Pyrenophora teres): 92%
% of efficacy (protection) (Puccinia recondita): 94%
% of efficacy (protection) (Septoria tritici): 100%
% of efficacy (protection) (Sphaerotheca fuliginea): 100%
% of efficacy (protection) (Uromyces appendiculatus): 100%

CC1(C(=O)O)CC(c2ccc3ncc(Cl)cc3c2)=NO1 (stereo not shown) [Compound No. II-01, 3-(3-chloroquinolin-6-yl)-5-methyl-4,5-dihydro-1,2-oxazole-5-carboxylic acid]
chromatographic logP [1]: 1.87
chromatographic logP (physchem): 1.87

CC1(C(=O)O)CC(c2ccc3ncc(I)cc3c2)=NO1 (stereo not shown) [Compound No. II-09]
chromatographic logP [1]: 1.93
chromatographic logP (physchem): 2.05

CC(C)NC(=O)C1(C)CC(c2ccc3ncc(Br)cc3c2)=NO1 (stereo not shown) [compound 31]
log P [1, 3]: 2.75^[a]
% of efficacy (protection) (Botrytis cinerea): 93%
Grading, protection (Peronospora parasitica): 90%
% of efficacy (protection) (Septoria tritici): 100%
% of efficacy (protection) (Sphaerotheca fuliginea): 100%

CCn1cc(CNC(=O)C2(C)CC(c3ccc4ncc(Br)cc4c3)=NO2)c(C)n1 (stereo not shown) [compound 34]
log P [1, 3]: 2.39^[a]
% of efficacy (protection) (Botrytis cinerea): 100%
Grading, protection (Peronospora parasitica): 98%
% of efficacy (protection) (Phytophthora infestans): 99%
% of efficacy (protection) (Sphaerotheca fuliginea): 94% and 98%

CCn1cc(CNC(=O)C2(C(F)(F)F)CC(c3ccc4ncc(Br)cc4c3)=NO2)c(C)n1 (stereo not shown) [compound 35]
log P [1, 3]: 3.02^[a]
Grading, protection (Peronospora parasitica): 90%
% of efficacy (protection) (Septoria tritici): 97%

CC(C)NC(=O)C1(C(F)(F)F)CC(c2ccc3ncc(Br)cc3c2)=NO1 (stereo not shown) [compound 36]
log P [1, 3]: 3.52^[a]
Grading, protection (Peronospora parasitica): 98%
% of efficacy (protection) (Pyrenophora teres): 79%
% of efficacy (protection) (Puccinia recondita): 79%
% of efficacy (protection) (Septoria tritici): 100%

CCn1cc(CNC(=O)C2(C)CC(c3ccc4ncc(I)cc4c3)=NO2)c(C)n1 (stereo not shown) [compound 39]
log P [1, 3]: 2.49^[a]
% of efficacy (protection) (Botrytis cinerea): 100%
Grading, protection (Peronospora parasitica): 100%
% of efficacy (protection) (Phytophthora infestans): 100%
% of efficacy (protection) (Sphaerotheca fuliginea): 100%

C#Cc1cnc2ccc(C3=NOC(C)(C(=O)NCc4cn(CC)nc4C)C3)cc2c1 (stereo not shown) [compound 43]
log P [1, 3]: 2.14^[a]
% of efficacy (protection) (Botrytis cinerea): 100%
Grading, protection (Peronospora parasitica): 94%
% of efficacy (protection) (Phytophthora infestans): 100%
% of efficacy (protection) (Puccinia recondita): 75%
% of efficacy (protection) (Sphaerotheca fuliginea): 100%
% of efficacy (protection) (Uromyces appendiculatus): 97%

CCn1cc(CNC(=O)C2(OC)CC(c3ccc4ncc(Br)cc4c3)=NO2)c(C)n1 (stereo not shown) [compound 47]
log P [1, 3]: 2.31^[a]
% of efficacy (protection) (Botrytis cinerea): 95%
Grading, protection (Peronospora parasitica): 100%
% of efficacy (protection) (Pyrenophora teres): 75%
% of efficacy (protection) (Septoria tritici): 100%

COC1(C(=O)NC(C)C)CC(c2ccc3ncc(Br)cc3c2)=NO1 (stereo not shown) [compound 48]
log P [1, 3]: 2.64^[a]
% of efficacy (protection) (Alternaria brassicae): 97%
% of efficacy (protection) (Botrytis cinerea): 100%
Grading, protection (Peronospora parasitica): 98%
% of efficacy (protection) (Phytophthora infestans): 100%
% of efficacy (protection) (Pyrenophora teres): 93%
% of efficacy (protection) (Puccinia recondita): 89%
% of efficacy (protection) (Septoria tritici): 100%
% of efficacy (protection) (Sphaerotheca fuliginea): 100%
% of efficacy (protection) (Uromyces appendiculatus): 96%

CCCn1cc(CNC(=O)C2(C)CC(c3ccc4ncc(Br)cc4c3)=NO2)c(C)n1 (stereo not shown) [compound 49]
log P [1, 3]: 2.64^[a]
% of efficacy (protection) (Botrytis cinerea): 100%
Grading, protection (Peronospora parasitica): 100%
% of efficacy (protection) (Phytophthora infestans): 100%
% of efficacy (protection) (Septoria tritici): 79% and 97%
% of efficacy (protection) (Sphaerotheca fuliginea): 98%

CCOCCCNC(=O)C1(OC)CC(c2ccc3ncc(Br)cc3c2)=NO1 (stereo not shown) [compound 52]
log P [1, 3]: 2.68^[a]
% of efficacy (protection) (Alternaria brassicae): 71% and 75%
% of efficacy (protection) (Botrytis cinerea): 100%
% of efficacy (protection) (Pyrenophora teres): 71%
% of efficacy (protection) (Puccinia recondita): 88%
% of efficacy (protection) (Septoria tritici): 93% and 97%
% of efficacy (protection) (Sphaerotheca fuliginea): 100%

CCOCCCNC(=O)C1(C(F)(F)F)CC(c2ccc3ncc(Br)cc3c2)=NO1 (stereo not shown) [compound 105]
log P [1, 3]: 3.57^[a]
% of efficacy (protection) (Alternaria brassicae): 70%
% of efficacy (protection) (Pyrenophora teres): 79%
% of efficacy (protection) (Puccinia recondita): 71%
% of efficacy (protection) (Septoria tritici): 75%
% of efficacy (protection) (Sphaerotheca fuliginea): 100%
% of efficacy (protection) (Uromyces appendiculatus): 86%

CC1(C)OCC(CNC(=O)C2(C)CC(c3ccc4ncc(Br)cc4c3)=NO2)O1 (stereo not shown) [compound 129]
log P [1, 3]: 2.64^[a]
% of efficacy (protection) (Phytophthora infestans): 85%
% of efficacy (protection) (Pyrenophora teres): 88%
% of efficacy (protection) (Septoria tritici): 100%
% of efficacy (protection) (Sphaerotheca fuliginea): 80%
% of efficacy (protection) (Uromyces appendiculatus): 100%

C#Cc1cnc2ccc(C3=NOC(C)(C(=O)NCc4ccc(Cl)cc4Cl)C3)cc2c1 (stereo not shown) [compound 198]
log P [1, 3]: 3.73^[a]
% of efficacy (protection) (Alternaria brassicae): 98%
% of efficacy (protection) (Botrytis cinerea): 95%
% of efficacy (protection) (Pyrenophora teres): 86%
% of efficacy (protection) (Septoria tritici): 86%

C#Cc1cnc2ccc(C3=NOC(C)(C(=O)NC(C)c4ccccn4)C3)cc2c1 (stereo not shown) [compound 206]
log P [1, 3]: 1.9^[a]
% of efficacy (protection) (Phytophthora infestans): 93%
% of efficacy (protection) (Pyrenophora teres): 71%
% of efficacy (protection) (Septoria tritici): 100%
% of efficacy (protection) (Sphaerotheca fuliginea): 94%

C#Cc1cnc2ccc(C3=NOC(C)(C(=O)NCc4ccc5c(c4)CCO5)C3)cc2c1 (stereo not shown) [compound 219]
log P [1, 3]: 2.78^[a]
% of efficacy (protection) (Alternaria brassicae): 75%
% of efficacy (protection) (Botrytis cinerea): 99%
% of efficacy (protection) (Pyrenophora teres): 71%

Cc1cnc2ccc(C3=NOC(C)(C(=O)NC(C)C)C3)cc2c1 (stereo not shown) [compound 260]
log P [1, 4]: 1.63^[a]
% of efficacy (protection) (Botrytis cinerea): 75%
% of efficacy (protection) (Phytophthora infestans): 90%
% of efficacy (protection) (Pyrenophora teres): 75%
% of efficacy (protection) (Septoria tritici): 98%

C#CCONC(=O)C1(C)CC(c2ccc3ncc(Br)cc3c2)=NO1 (stereo not shown) [compound 306]
log P [1, 4]: 2.22[a]
% of efficacy (protection) (Alternaria brassicae): 71%
% of efficacy (protection) (Pyrenophora teres): 75%
% of efficacy (protection) (Septoria tritici): 78%
% of efficacy (protection) (Uromyces appendiculatus): 100%

C#Cc1cnc2ccc(C3=NOC(OC)(C(=O)NC(C)C)C3)cc2c1 (stereo not shown) [compound 406]
log P [1, 2]: 2.35[a]
% of efficacy (protection) (Pyrenophora teres): 83%
% of efficacy (protection) (Septoria tritici): 100%
% of efficacy (protection) (Sphaerotheca fuliginea): 100%
